Results on one compound are retold here after ChEMBL document CHEMBL1130333, “On the mechanism of chorismate mutases: Revisiting structural requirements for catalysis” (Bioorg Med Chem Lett, 1997).

Structures are written as SMILES.

The nature of data set [1]: Rearrangement half-life at pH of 7.8 was determined. In kind it is ADME. The following applies: pH 7.8.
The nature of data set [2]: Rearrangement half-life at pH of 7.4 was determined. The note with it: pH 7.4. It is filed as ADME.
Data set [3] can be described thus: The compound was tested for inhibition of Bacillus subtilis chorismate mutase (BcCM); weak competitive inhibitor.

What is called half-life is the time needed for the level to fall by half in the phase considered. Read a high half-life as slow loss. As a reminder, the Ki is the equilibrium dissociation constant of an inhibitor or competing ligand from its target. Turning to `C=C(O[C@@H]1C=CC=C[C@H]1O)C(=O)[O-].[Na+]`, the half-life is 3.1 h in data set [1] and 1.7 h in data set [2]. The compound further showed a Ki in data set [3] of 500 µM.
